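The compound was tested at five concentrations on cells cultured in 96-well plates, with a 48-hour exposure period. GI50 = concentration required for 50% inhibition of growth.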 Activity calls are given as the source filed them. Cut-off read from the data, not from the text of the source: active = GI50 up to about 1.1 µM and inactive = higher.
Legend:
Assay in all cases: NCI tumour cell line growth inhibition, 48 h
RPMI-8226 = system: RPMI-8226
HCT-15 = system: HCT-15
UACC-257 = system: UACC-257
OVCAR-8 = system: OVCAR-8
MDA-N = system: MDA-N
EKVX = system: EKVX
OVCAR-3 = system: OVCAR-3
UO-31 = system: UO-31
HCC 2998 = system: HCC 2998
NCI-H522 = system: NCI-H522
UACC-62 = system: UACC-62
COLO 205 = system: COLO 205
MDA-MB-231 = system: MDA-MB-231
U-251 = system: U-251
K562 = system: K562
RXF 393 = system: RXF 393
OVCAR-4 = system: OVCAR-4
SF-268 = system: SF-268
HT-29 = system: HT-29
NCI-H460 = system: NCI-H460
A549 = system: A549
OVCAR-5 = system: OVCAR-5
SF-295 = system: SF-295
NCI-H23 = system: NCI-H23
CAKI-1 = system: CAKI-1
M14 = system: M14
NCI/ADR-RES = system: NCI/ADR-RES
HOP-62 = system: HOP-62
T47D = system: T47D
KM12 = system: KM12
A498 = system: A498
SK-MEL-2 = system: SK-MEL-2
TK-10 = system: TK-10
MCF7 = system: MCF7
SK-MEL-5 = system: SK-MEL-5
786-0 = system: 786-0
SW-620 = system: SW-620
HCT-116 = system: HCT-116
ACHN = system: ACHN
SK-MEL-28 = system: SK-MEL-28
MOLT-4 = system: MOLT-4
BT-549 = system: BT-549
SK-OV-3 = system: SK-OV-3
Malme-3M = system: Malme-3M
Hs-578T = system: Hs-578T
HOP-92 = system: HOP-92
SNB-19 = system: SNB-19
MDA-MB-435 = system: MDA-MB-435
DU-145 = system: DU-145
IGROV-1 = system: IGROV-1
SNB-75 = system: SNB-75
PC-3 = system: PC-3
CCRF-CEM = system: CCRF-CEM
SR = system: SR
SF-539 = system: SF-539
SN12C = system: SN12C
LOX IMVI = system: LOX IMVI
HL-60 = system: HL-60
NCI-H226 = system: NCI-H226

Measured: GI50

C/C(N)=C/C(=O)c1[nH]c(C(=O)O)cc1C1CCN(Cc2ccccc2)C1=O (configuration not stated)
inactive: RPMI-8226 19.6 µM | UACC-257 28.6 µM | OVCAR-8 21.8 µM | MDA-N 23.7 µM | EKVX 30.1 µM | OVCAR-3 20.6 µM | UO-31 23.2 µM | HCC 2998 52.7 µM | NCI-H522 20.6 µM | UACC-62 22.3 µM | COLO 205 23.9 µM | MDA-MB-231 41.1 µM | U-251 39.6 µM | K562 20.8 µM | RXF 393 18.5 µM | OVCAR-4 47.8 µM | SF-268 22.3 µM | HT-29 31.8 µM | NCI-H460 29.4 µM | A549 34.4 µM | OVCAR-5 30.2 µM | SF-295 21.3 µM | NCI-H23 22.8 µM | CAKI-1 40.8 µM | M14 18.8 µM | NCI/ADR-RES 19.9 µM | HOP-62 18.4 µM | T47D 22.8 µM | KM12 31.9 µM | A498 65.3 µM | SK-MEL-2 28.9 µM | TK-10 38.5 µM | MCF7 24.2 µM | SK-MEL-5 15.3 µM | 786-0 26.7 µM | SW-620 46.1 µM | HCT-116 22.2 µM | ACHN 30 µM | SK-MEL-28 24.3 µM | MOLT-4 24.4 µM | BT-549 31.8 µM | SK-OV-3 28.6 µM | Malme-3M 18.8 µM | Hs-578T 27.9 µM | HOP-92 17 µM | SNB-19 33.4 µM | MDA-MB-435 40.6 µM | DU-145 22.1 µM | IGROV-1 27.2 µM | SNB-75 23.1 µM | PC-3 37.6 µM
29.9 µM: HCT-15

Cc1ccc(S(=O)(=O)NC(=O)NC(Cc2ccc(O)cc2)C(=O)O)cc1 (configuration not stated)
inactive: RPMI-8226 > 100 µM | UACC-257 > 100 µM | OVCAR-8 > 100 µM | MDA-N > 100 µM | UO-31 > 100 µM | CCRF-CEM > 100 µM | NCI-H522 > 100 µM | SR > 100 µM | COLO 205 > 100 µM | MDA-MB-231 > 100 µM | U-251 > 100 µM | K562 > 100 µM | RXF 393 > 100 µM | OVCAR-4 > 100 µM | SF-268 > 100 µM | SF-539 > 100 µM | HT-29 > 100 µM | NCI-H460 > 100 µM | A549 > 100 µM | OVCAR-5 > 100 µM | SF-295 > 100 µM | NCI-H23 > 100 µM | M14 > 100 µM | NCI/ADR-RES > 100 µM | HOP-62 > 100 µM | T47D > 100 µM | KM12 > 100 µM | SK-MEL-2 > 100 µM | TK-10 > 100 µM | SN12C > 100 µM | SK-MEL-5 > 100 µM | LOX IMVI > 100 µM | 786-0 > 100 µM | SW-620 > 100 µM | HL-60 > 100 µM | HCT-116 > 100 µM | SK-MEL-28 > 100 µM | MOLT-4 > 100 µM | BT-549 > 100 µM | SK-OV-3 > 100 µM | Malme-3M > 100 µM | Hs-578T > 100 µM | HOP-92 > 100 µM | SNB-19 > 100 µM | DU-145 > 100 µM | IGROV-1 > 100 µM | SNB-75 > 100 µM | PC-3 > 100 µM
> 100 µM: HCT-15

Oc1ccccc1C(c1cc2c(cc1O)OCO2)N1CCOCC1 (configuration not stated)
inactive: RPMI-8226 12.8 µM | UACC-257 19.2 µM | OVCAR-8 9.29 µM | MDA-N 18.7 µM | EKVX 50.9 µM | OVCAR-3 17.5 µM | UO-31 15.8 µM | HCC 2998 18.7 µM | CCRF-CEM 2.14 µM | NCI-H522 10.2 µM | UACC-62 17 µM | SR 8.07 µM | COLO 205 18.7 µM | MDA-MB-231 21 µM | U-251 16.6 µM | K562 5.25 µM | RXF 393 14.3 µM | NCI-H226 35.6 µM | SF-268 18.5 µM | SF-539 20.7 µM | HT-29 18.5 µM | NCI-H460 27.4 µM | A549 23 µM | OVCAR-5 25 µM | SF-295 20.6 µM | NCI-H23 23.6 µM | CAKI-1 19.7 µM | M14 17.9 µM | HOP-62 38.8 µM | T47D 16.7 µM | KM12 19.8 µM | A498 22.9 µM | SK-MEL-2 17.8 µM | TK-10 > 10 µM | SN12C 19.1 µM | MCF7 19.4 µM | SK-MEL-5 17.3 µM | LOX IMVI 17.1 µM | 786-0 4.89 µM | SW-620 23 µM | HL-60 2.24 µM | HCT-116 17.7 µM | ACHN 17.5 µM | SK-MEL-28 20.7 µM | MOLT-4 8.24 µM | BT-549 16.6 µM | SK-OV-3 19.8 µM | Malme-3M 17.8 µM | Hs-578T 19.5 µM | HOP-92 17.3 µM | SNB-19 19.1 µM | MDA-MB-435 18.2 µM | DU-145 37.4 µM | IGROV-1 19.4 µM | SNB-75 16.4 µM | PC-3 16.3 µM
16.4 µM: HCT-15

CC(=O)OC[C@H]1CN(OC(C)=O)C[C@@H](n2cc(C)c(=O)[nH]c2=O)O1
> 100 µM: HCT-15
inactive: RPMI-8226 > 100 µM | UACC-257 > 100 µM | OVCAR-8 > 100 µM | MDA-N > 100 µM | EKVX > 100 µM | UO-31 > 100 µM | HCC 2998 > 100 µM | UACC-62 > 100 µM | COLO 205 > 100 µM | MDA-MB-231 > 100 µM | U-251 > 100 µM | K562 > 100 µM | RXF 393 > 100 µM | NCI-H226 > 100 µM | OVCAR-4 > 100 µM | SF-268 > 100 µM | SF-539 > 100 µM | NCI-H460 > 100 µM | A549 > 100 µM | OVCAR-5 > 100 µM | SF-295 > 100 µM | CAKI-1 > 100 µM | M14 > 100 µM | HOP-62 > 100 µM | T47D > 100 µM | KM12 > 100 µM | A498 > 100 µM | SK-MEL-2 > 100 µM | TK-10 > 100 µM | SN12C > 100 µM | MCF7 > 100 µM | SK-MEL-5 > 100 µM | 786-0 > 100 µM | SW-620 > 100 µM | HL-60 > 100 µM | HCT-116 > 100 µM | ACHN > 100 µM | SK-MEL-28 > 100 µM | MOLT-4 > 100 µM | BT-549 > 100 µM | SK-OV-3 > 100 µM | Hs-578T > 100 µM | SNB-19 > 100 µM | MDA-MB-435 > 100 µM | DU-145 > 100 µM | IGROV-1 > 100 µM | SNB-75 61.5 µM | PC-3 > 100 µM

Source: ChEMBL document CHEMBL1201862, “PubChem BioAssay data set” (2004)
